Reference: US11787785B2 (NOVARTIS AG, priority 2021, dated 2023)

Molecular target: T1, WIZ protein (HiBit-WIZ fusion protein) (Homo sapiens, UniProt O95785+Q96SW2)
T1 construct: expressed in transfected cells
Test: Quantification of WIZ protein levels in HiBit tag fusion protein assay (WIZ HiBit assay in 293T cells)
Format: cell-based
Set-up: remaining activity / Dmax: dose or concentration left out as unconfirmed
Details: for DC50: WIZ HiBit assay in 293T cells, 10-point, 5-fold dose response, highest concentration 25 μM, about 18 hours, read-out: WIZ AC50
Summary of the method: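 Luminescence after LgBit complementation quantified remaining HiBit-WIZ in lysates of single-copy stable 293T lines. Cells dosed ~18 h at 37 °C with 10-point, 5-fold dilutions (highest 25 μM); DMSO set to 100%, fitted curve gave % remaining at 25 μM (Amax).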

[1] = HEK-293T, 100 − Amax, at 25 uM, 293T cells, read-out: % degradation of WIZ (100 − Amax)
[2] = HEK-293T, DMSO-normalized, curve-fitted percentage of WIZ-HiBit remaining at 25 uM, 293T cells, read-out: WIZ Amax

T1 sequence (O95785 whole entry, the tested form may be a part): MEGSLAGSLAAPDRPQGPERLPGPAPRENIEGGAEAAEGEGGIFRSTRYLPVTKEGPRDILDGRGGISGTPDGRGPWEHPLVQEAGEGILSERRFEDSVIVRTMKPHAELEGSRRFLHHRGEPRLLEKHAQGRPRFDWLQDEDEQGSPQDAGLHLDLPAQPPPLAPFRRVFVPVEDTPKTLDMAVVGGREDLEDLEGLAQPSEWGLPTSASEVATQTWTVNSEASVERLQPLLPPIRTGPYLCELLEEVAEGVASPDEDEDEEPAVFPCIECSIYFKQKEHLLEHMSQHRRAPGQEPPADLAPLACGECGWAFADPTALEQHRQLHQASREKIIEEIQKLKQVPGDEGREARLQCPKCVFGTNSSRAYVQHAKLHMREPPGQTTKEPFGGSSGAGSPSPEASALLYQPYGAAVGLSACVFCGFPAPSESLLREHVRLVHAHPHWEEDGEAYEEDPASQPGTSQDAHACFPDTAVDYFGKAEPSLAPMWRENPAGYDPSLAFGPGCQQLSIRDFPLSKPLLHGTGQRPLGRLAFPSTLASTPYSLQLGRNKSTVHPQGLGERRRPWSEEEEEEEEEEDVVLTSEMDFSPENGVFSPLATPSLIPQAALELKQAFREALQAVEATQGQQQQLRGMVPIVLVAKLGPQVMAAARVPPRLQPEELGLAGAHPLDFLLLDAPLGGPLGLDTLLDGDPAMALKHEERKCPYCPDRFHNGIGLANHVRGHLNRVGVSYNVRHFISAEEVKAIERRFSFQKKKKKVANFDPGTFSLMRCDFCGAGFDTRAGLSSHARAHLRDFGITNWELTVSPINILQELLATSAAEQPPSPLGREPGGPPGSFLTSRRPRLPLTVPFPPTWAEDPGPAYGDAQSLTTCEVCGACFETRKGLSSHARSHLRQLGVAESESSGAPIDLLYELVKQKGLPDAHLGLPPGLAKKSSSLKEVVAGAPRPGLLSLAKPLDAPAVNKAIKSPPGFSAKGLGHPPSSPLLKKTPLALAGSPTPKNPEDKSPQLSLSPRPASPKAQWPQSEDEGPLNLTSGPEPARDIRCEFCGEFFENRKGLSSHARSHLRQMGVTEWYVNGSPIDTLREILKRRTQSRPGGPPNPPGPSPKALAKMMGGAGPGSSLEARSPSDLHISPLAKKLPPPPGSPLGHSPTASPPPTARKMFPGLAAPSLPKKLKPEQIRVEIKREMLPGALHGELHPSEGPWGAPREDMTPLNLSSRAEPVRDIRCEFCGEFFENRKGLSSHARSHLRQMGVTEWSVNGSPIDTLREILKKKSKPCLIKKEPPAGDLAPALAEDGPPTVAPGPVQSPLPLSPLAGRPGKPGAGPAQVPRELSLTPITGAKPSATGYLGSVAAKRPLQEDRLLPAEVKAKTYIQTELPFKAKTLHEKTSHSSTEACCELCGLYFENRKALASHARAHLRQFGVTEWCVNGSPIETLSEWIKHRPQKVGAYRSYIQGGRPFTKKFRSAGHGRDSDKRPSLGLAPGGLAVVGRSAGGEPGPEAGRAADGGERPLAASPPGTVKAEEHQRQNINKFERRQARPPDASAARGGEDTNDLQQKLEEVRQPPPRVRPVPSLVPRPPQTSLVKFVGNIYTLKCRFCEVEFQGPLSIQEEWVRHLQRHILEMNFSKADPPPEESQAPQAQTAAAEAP
T1 sequence (Q96SW2 whole entry, the tested form may be a part): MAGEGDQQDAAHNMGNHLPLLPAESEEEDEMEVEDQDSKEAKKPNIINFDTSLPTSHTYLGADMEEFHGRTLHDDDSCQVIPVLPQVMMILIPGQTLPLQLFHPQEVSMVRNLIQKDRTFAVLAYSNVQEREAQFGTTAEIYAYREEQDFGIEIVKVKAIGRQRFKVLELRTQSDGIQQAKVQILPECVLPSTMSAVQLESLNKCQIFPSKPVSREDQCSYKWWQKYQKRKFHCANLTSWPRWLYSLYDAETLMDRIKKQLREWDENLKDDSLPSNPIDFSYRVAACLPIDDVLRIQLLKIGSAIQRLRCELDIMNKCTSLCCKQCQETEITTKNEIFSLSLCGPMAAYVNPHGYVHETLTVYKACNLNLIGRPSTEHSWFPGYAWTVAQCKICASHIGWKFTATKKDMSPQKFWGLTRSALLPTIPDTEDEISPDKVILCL
T1 sequence (Q16531 whole entry partner, the tested form may be a part): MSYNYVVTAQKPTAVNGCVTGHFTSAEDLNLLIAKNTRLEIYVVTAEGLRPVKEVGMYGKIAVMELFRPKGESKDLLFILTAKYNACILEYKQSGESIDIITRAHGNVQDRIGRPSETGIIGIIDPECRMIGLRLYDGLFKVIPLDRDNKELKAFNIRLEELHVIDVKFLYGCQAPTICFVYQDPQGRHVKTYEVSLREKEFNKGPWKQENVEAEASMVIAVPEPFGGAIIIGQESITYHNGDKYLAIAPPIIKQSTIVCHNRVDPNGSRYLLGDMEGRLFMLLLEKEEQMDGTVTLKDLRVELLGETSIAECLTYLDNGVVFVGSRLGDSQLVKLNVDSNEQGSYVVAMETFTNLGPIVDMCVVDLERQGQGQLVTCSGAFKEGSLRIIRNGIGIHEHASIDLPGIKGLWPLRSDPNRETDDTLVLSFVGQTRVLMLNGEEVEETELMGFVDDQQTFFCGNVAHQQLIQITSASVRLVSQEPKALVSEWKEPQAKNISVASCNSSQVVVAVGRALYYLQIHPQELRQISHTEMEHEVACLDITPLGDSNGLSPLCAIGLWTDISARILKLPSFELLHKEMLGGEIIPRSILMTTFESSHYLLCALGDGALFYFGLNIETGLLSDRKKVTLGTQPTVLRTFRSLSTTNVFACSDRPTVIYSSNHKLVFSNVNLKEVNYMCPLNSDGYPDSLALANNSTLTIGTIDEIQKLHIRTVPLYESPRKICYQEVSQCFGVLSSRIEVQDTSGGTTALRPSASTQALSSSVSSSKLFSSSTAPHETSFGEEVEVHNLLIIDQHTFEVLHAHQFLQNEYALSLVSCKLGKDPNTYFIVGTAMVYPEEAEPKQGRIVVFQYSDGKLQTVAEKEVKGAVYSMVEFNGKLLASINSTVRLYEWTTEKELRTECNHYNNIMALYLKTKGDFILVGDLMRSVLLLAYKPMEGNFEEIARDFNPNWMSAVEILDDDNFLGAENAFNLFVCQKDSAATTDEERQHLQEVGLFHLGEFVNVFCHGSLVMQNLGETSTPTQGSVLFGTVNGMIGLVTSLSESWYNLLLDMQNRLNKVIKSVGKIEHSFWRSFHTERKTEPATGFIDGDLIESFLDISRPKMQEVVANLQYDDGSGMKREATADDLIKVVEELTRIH

| Compound | Dmax at 25 µM [1] | remaining activity at 25 µM [2] | DC50 | % degradation of WIZ (100 − Amax) (100 − Amax, at 25 uM, 293T cells) | WIZ Amax (DMSO-normalized, curve-fitted percentage of WIZ-HiBit remaining at 25 uM, 293T cells) | Dmax (HEK-293T, read-out: % degradation of WIZ (100 − Amax)) | remaining activity (HEK-293T, read-out: WIZ Amax) |
| --- | --- | --- | --- | --- | --- | --- | --- |
| O=C1CCN(c2cnn3ccc(CC4CCN(CCC5CCCCC5)CC4)cc23)C(=O)N1 [Example 6, 1-(5-((1-(2-cyclohexylethyl)piperidin-4-yl)methyl)pyrazolo[1,5-a]pyridin-3-yl)dihydropyrimidine-2,4(1H,3H)-dione] | 89% | 11% | 13 nM |  |  |  |  |
| O=C1CCN(c2cnn3ccc(CC4CCN(C(=O)CCc5ccccc5)CC4)cc23)C(=O)N1 [Example 102] | 40% | 60% | 165 nM |  |  |  |  |
| O=C1CCN(c2cnn3ccc(CC4(F)CCN(Cc5ccccc5)CC4)cc23)C(=O)N1 [Example 126, 1-(5-((1-benzyl-4-fluoropiperidin-4-yl)methyl)pyrazolo[1,5-a]pyridin-3-yl)dihydropyrimidine-2,4(1H,3H)-dione] | 35% | 65% | 290 nM |  |  |  |  |
| O=C1CCN(c2cnn3ccc(CC4C[C@H]5CC[C@@H](C4)N5Cc4cccnc4)cc23)C(=O)N1 (stereo partly drawn) [Example 68, 1-(5-(((1R,5S)-8-(pyridin-3-ylmethyl)-8-azabicyclo[3.2.1]octan-3-yl)methyl)pyrazolo[1,5-a]pyridin-3-yl)dihydropyrimidine-2,4(1H,3H)-dione] | 57% | 43% | 384 nM |  |  |  |  |
| COC(C)(C)CN1CCC(Cc2ccn3ncc(N4CCC(=O)NC4=O)c3c2)CC1 [Example 105, 1-(5-((1-(2-methoxy-2-methylpropyl)piperidin-4-yl)methyl)pyrazolo[1,5-a]pyridin-3-yl)dihydropyrimidine-2,4(1H,3H)-dione] |  |  | 2160 nM |  |  | 64% | 36% |
| C[C@H]1C[C@H](Cc2ccn3ncc(N4CCC(=O)NC4=O)c3c2)CCN1CC1CCCC1 [Example 144] | 87% | 13% | 8 nM |  |  |  |  |
| O=C1CCN(c2cnn3ccc(CC4CCN(S(=O)(=O)C5CC5)CC4)cc23)C(=O)N1 [Example 89] | 77% | 23% | 285 nM |  |  |  |  |
| CC(C)(CN1CCC(Cc2ccn3ncc(N4CCC(=O)NC4=O)c3c2)CC1)C(F)(F)F [Example 62, 1-(5-((1-(3,3,3-trifluoro-2,2-dimethylpropyl)piperidin-4-yl)methyl)pyrazolo[1,5-a]pyridin-3-yl)dihydropyrimidine-2,4(1H,3H)-dione] | 73% | 27% | 49 nM |  |  |  |  |
| O=C1CCN(c2cnn3ccc(CC4CCN(CC(F)F)CC4)cc23)C(=O)N1 [Example 43, 1-(5-((1-(2,2-difluoroethyl)piperidin-4-yl)methyl)pyrazolo[1,5-a]pyridin-3-yl)dihydropyrimidine-2,4(1H,3H)-dione] | 70% | 30% | 34 nM |  |  |  |  |
| O=C1CCN(c2cnn3ccc(CC4CCN(Cc5cccc(F)c5)CC4)cc23)C(=O)N1 [Example 22, 1-(5-((1-(3-fluorobenzyl)piperidin-4-yl)methyl)pyrazolo[1,5-a]pyridin-3-yl)dihydropyrimidine-2,4(1H,3H)-dione] | 77% | 23% | 71 nM |  |  |  |  |
| O=C1CCN(c2cnn3ccc(CC4CCN(Cc5cccnc5)C4)cc23)C(=O)N1 (stereo not drawn) [Example 129] | 35% | 65% | 800 nM |  |  |  |  |
| O=C1CCN(c2cnn3ccc(CC4CN(CC5CCCCC5)C4)cc23)C(=O)N1 [Example 135, 1-(5-((1-(cyclohexylmethyl)azetidin-3-yl)methyl)pyrazolo[1,5-a]pyridin-3-yl)dihydropyrimidine-2,4(1H,3H)-dione] | 26% | 74% | 2100 nM |  |  |  |  |
| CC(C)N1CCN(Cc2ccn3ncc(N4CCC(=O)NC4=O)c3c2)CC1 [Example 166] | 66% | 34% | 632 nM |  |  |  |  |

The next lines start with results.

| Dmax at 25 µM [1] | remaining activity at 25 µM [2] | DC50 | % degradation of WIZ (100 − Amax) (100 − Amax, at 25 uM, 293T cells) | WIZ Amax (DMSO-normalized, curve-fitted percentage of WIZ-HiBit remaining at 25 uM, 293T cells) | Compound | Dmax (HEK-293T, read-out: % degradation of WIZ (100 − Amax)) | remaining activity (HEK-293T, read-out: WIZ Amax) |
| --- | --- | --- | --- | --- | --- | --- | --- |
| 82% | 18% | 41 nM |  |  | C[C@H]1CN(Cc2ccn3ncc(N4CCC(=O)NC4=O)c3c2)CCN1C1CCOCC1 [Example 330] |  |  |
| 91% | 9% | 47 nM |  |  | Cc1cn(-c2cnn3ccc(C[C@@H]4CCN(CC5CCC(F)(F)CC5)[C@@H](C)C4)cc23)c(=O)[nH]c1=O [Example 351, 1-(5-(((2S,4R)-1-((4,4-difluorocyclohexyl)methyl)-2-methylpiperidin-4-yl)methyl)pyrazolo[1,5-a]pyridin-3-yl)-5-methylpyrimidine-2,4(1H,3H)-dione] |  |  |
| 61% | 39% | 258 nM |  |  | CC(C)CN1[C@@H](C)CN(Cc2ccn3ncc(N4CCC(=O)NC4=O)c3c2)C[C@@H]1C [Example 259, 1-(5-(((3S,5S)-4-isobutyl-3,5-dimethylpiperazin-1-yl)methyl)pyrazolo[1,5-a]pyridin-3-yl)dihydropyrimidine-2,4(1H,3H)-dione] |  |  |
| 80% | 20% | 25 nM |  |  | CC(C)C(C)N1CCN(Cc2ccn3ncc(N4CCC(=O)NC4=O)c3c2)CC1 (stereo not drawn) [Example 240, 1-(5-((4-(3-methylbutan-2-yl)piperazin-1-yl)methyl)pyrazolo[1,5-a]pyridin-3-yl)dihydropyrimidine-2,4(1H,3H)-dione] |  |  |
| 42% | 58% | 771 nM |  |  | O=C1CCN(c2cnn3ccc(CN4CCN(CC(F)(F)C(F)F)CC4)cc23)C(=O)N1 [Example 173] |  |  |
| 37% | 63% | 916 nM |  |  | C[C@H]1CN(Cc2ccn3ncc(N4CCC(=O)NC4=O)c3c2)CCN1C(=O)C1CCCCC1 [Example 342, (S)-1-(5-((4-(cyclohexanecarbonyl)-3-methylpiperazin-1-yl)methyl)pyrazolo[1,5-a]pyridin-3-yl)dihydropyrimidine-2,4(1H,3H)-dione] |  |  |
|  |  | 310 nM | 78% | 22% | C[C@H]1CC(F)(Cc2ccn3ncc(N4CCC(=O)NC4=O)c3c2)CCN1C1COC1 (single isomer, unassigned) [Example 311] |  |  |
| 35% | 65% | 1070 nM |  |  | C[C@H]1CN(Cc2ccn3ncc(N4CCC(=O)NC4=O)c3c2)CCN1C(=O)C1CCC1 [Example 344, (S)-1-(5-((4-(cyclobutanecarbonyl)-3-methylpiperazin-1-yl)methyl)pyrazolo[1,5-a]pyridin-3-yl)dihydropyrimidine-2,4(1H,3H)-dione] |  |  |
| 64% | 36% | 457 nM |  |  | CC(C)CN1CCN(Cc2ccn3ncc(N4CCC(=O)NC4=O)c3c2)[C@@H](C)C1 [Example 222] |  |  |
| 0% | 100% | > 25000 nM |  |  | CC(C)S(=O)(=O)N1C[C@H]2C[C@@H]1CN2Cc1ccn2ncc(N3CCC(=O)NC3=O)c2c1 [Example 239, 1-(5-(((1R,4R)-5-(isopropylsulfonyl)-2,5-diazabicyclo[2.2.1]heptan-2-yl)methyl)pyrazolo[1,5-a]pyridin-3-yl)dihydropyrimidine-2,4(1H,3H)-dione] |  |  |
| 89% | 11% | 365 nM |  |  | Cc1cn(-c2cnn3ccc(CN4CCN(CC(C)C)[C@@H](C)C4)cc23)c(=O)[nH]c1=O [Example 359, (S)-1-(5-((4-isobutyl-3-methylpiperazin-1-yl)methyl)pyrazolo[1,5-a]pyridin-3-yl)-5-methylpyrimidine-2,4(1H,3H)-dione] |  |  |
